Measured values: patent US6960582B2, “Guanidino compounds” (Chiron Corporation, priority 2001, dated 2005)

Biological target: MC4-R (Homo sapiens, UniProt P32245)
Test: cAMP Scintillation Proximity Assay (SPA) in cells expressing MC4-R
Format: cell-based
Conditions: intercellular cAMP concentration by SPA kit, read-out: in vitro potency (as measured by EC50 value)
Description: EC50 values of test compounds were determined by treating cells expressing MC4-R with test compound and lysing the cells and measuring intercellular cAMP concentration with an Amersham-Pharmacia RPA-559 cAMP Scintillation Proximity Assay (SPA) kit. The following compounds were synthesized and tested according to this assay. The following compounds are merely illustrative and should not be construed as limiting of the instant invention.

Chain of MC4-R (P32245 whole entry, species assumed): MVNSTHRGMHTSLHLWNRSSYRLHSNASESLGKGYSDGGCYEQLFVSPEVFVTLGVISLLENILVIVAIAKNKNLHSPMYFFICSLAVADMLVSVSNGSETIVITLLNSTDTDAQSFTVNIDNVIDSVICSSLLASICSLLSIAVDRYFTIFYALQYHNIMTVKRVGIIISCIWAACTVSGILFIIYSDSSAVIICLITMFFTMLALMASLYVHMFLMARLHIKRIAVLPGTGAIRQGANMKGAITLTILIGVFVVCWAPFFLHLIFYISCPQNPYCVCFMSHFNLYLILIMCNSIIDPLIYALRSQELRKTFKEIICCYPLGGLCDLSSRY

| SMILES | EC50 [µM] |
| --- | --- |
| Cc1ccc(CCc2nc3ccc(NC(=N[C@H]4C[C@H]5C[C@@H]([C@@H]4C)C5(C)C)N4CCN[C@@H](C)C4)cc3[nH]2)c(C)c1 [Example 24, (3S)-N-{2-[2-(2,4-dimethylphenyl)ethyl]-1H-benzimidazol-6-yl}-3-methyl-N′-[(1S,2S,3S,5R)-2,6,6-trimethylbicyclo[3.1.1]hept-3-yl]piperazine-1-carboximidamide] | < 3 |
| C[C@@H]1[C@@H](N=C(Nc2ccc3nc(CCc4ccc(F)cc4Cl)[nH]c3c2)N2CCN[C@@H](C)C2)C[C@H]2C[C@@H]1C2(C)C [Example 25, (3S)-N-{2-[2-(2-chloro-4-fluorophenyl)ethyl]-1H-benzimidazol-6-yl}-3-methyl-N′-[(1S,2S,3S,5R)-2,6,6-trimethylbicyclo[3.1.1]hept-3-yl]piperazine-1-carboximidamide] | < 3 |
